# Experimental data reported in PubChem BioAssay (NCI).
#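 48-hour exposure; five concentrations; linearly interpolated endpoints. GI50 = concentration required for 50% inhibition of growth. TGI: total growth inhibition.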
# Key:
# Assay in all cases: inhibition of tumour cell growth, NCI panel, 48 h
# HS 578T breast = tested on: HS 578T breast
# K-562 leukemia = tested on: K-562 leukemia
# OVCAR-8 ovarian = tested on: OVCAR-8 ovarian
# RXF 393 renal = tested on: RXF 393 renal
# NCI/ADR-RES ovarian = tested on: NCI/ADR-RES ovarian
# HOP-92 NSCLC = tested on: HOP-92 NSCLC
# A498 renal = tested on: A498 renal
# SK-MEL-2 melanoma = tested on: SK-MEL-2 melanoma
# OVCAR-3 ovarian = tested on: OVCAR-3 ovarian
# NCI-H460 lung = tested on: NCI-H460 lung
# HCC-2998 colon = tested on: HCC-2998 colon
# U251 CNS = tested on: U251 CNS
# NCI-H226 lung = tested on: NCI-H226 lung
# M14 melanoma = tested on: M14 melanoma
# SF-268 CNS = tested on: SF-268 CNS
# A549 NSCLC = tested on: A549 NSCLC
# T-47D breast = tested on: T-47D breast
# SK-OV-3 ovarian = tested on: SK-OV-3 ovarian
# SK-MEL-28 melanoma = tested on: SK-MEL-28 melanoma
# ACHN renal = tested on: ACHN renal
# MDA-MB-231 breast = tested on: MDA-MB-231 breast
# SR leukemia = tested on: SR leukemia
# NCI-H23 lung = tested on: NCI-H23 lung
# IGROV1 ovarian = tested on: IGROV1 ovarian
# CCRF-CEM leukemia = tested on: CCRF-CEM leukemia
# RPMI-8226 leukemia = tested on: RPMI-8226 leukemia
# DU-145 prostate = tested on: DU-145 prostate
# 786-0 renal = tested on: 786-0 renal
# MCF7 breast = tested on: MCF7 breast
# TK-10 renal = tested on: TK-10 renal
# SW-620 colon = tested on: SW-620 colon
# HL-60(TB) leukemia = tested on: HL-60(TB) leukemia
# MDA-MB-435 = tested on: MDA-MB-435
# SN12C renal = tested on: SN12C renal
# OVCAR-4 ovarian = tested on: OVCAR-4 ovarian
# SK-MEL-5 melanoma = tested on: SK-MEL-5 melanoma
# UACC-62 melanoma = tested on: UACC-62 melanoma
# CAKI-1 renal = tested on: CAKI-1 renal
# OVCAR-5 ovarian = tested on: OVCAR-5 ovarian
# COLO 205 colon = tested on: COLO 205 colon
# KM12 colon = tested on: KM12 colon
# UO-31 renal = tested on: UO-31 renal
# EKVX NSCLC = tested on: EKVX NSCLC
# SNB-19 CNS = tested on: SNB-19 CNS
# LOX IMVI melanoma = tested on: LOX IMVI melanoma
# HCT-15 colon = tested on: HCT-15 colon
# BT-549 breast = tested on: BT-549 breast
# MALME-3M melanoma = tested on: MALME-3M melanoma
# NCI-H522 lung = tested on: NCI-H522 lung
# UACC-257 melanoma = tested on: UACC-257 melanoma
# HOP-62 NSCLC = tested on: HOP-62 NSCLC
# SF-295 CNS = tested on: SF-295 CNS
# MOLT-4 leukemia = tested on: MOLT-4 leukemia
# SNB-75 CNS = tested on: SNB-75 CNS
# HCT-116 colon = tested on: HCT-116 colon
# SF-539 CNS = tested on: SF-539 CNS
# PC-3 prostate = tested on: PC-3 prostate
# HT29 colon = tested on: HT29 colon
compound,measurement,setting,value
COc1cc2c(NC3CCN(C(C)C)CC3)nc(C3CCCCC3)nc2cc1OCCCN1CCCC1,GI50,HS 578T breast,4.11 µM
same,TGI,HS 578T breast,22.8 µM
same,GI50,K-562 leukemia,1990 nM
same,TGI,K-562 leukemia,4.55 µM
same,GI50,OVCAR-8 ovarian,3.97 µM
same,TGI,OVCAR-8 ovarian,15.6 µM
same,GI50,RXF 393 renal,1800 nM
same,TGI,RXF 393 renal,4.27 µM
same,GI50,NCI/ADR-RES ovarian,24.9 µM
same,TGI,NCI/ADR-RES ovarian,> 78.8 µM
same,GI50,HOP-92 NSCLC,3.48 µM
same,TGI,HOP-92 NSCLC,15.6 µM
same,GI50,A498 renal,2010 nM
same,TGI,A498 renal,14.1 µM
same,GI50,SK-MEL-2 melanoma,2180 nM
same,TGI,SK-MEL-2 melanoma,4.59 µM
same,GI50,OVCAR-3 ovarian,6.98 µM
same,TGI,OVCAR-3 ovarian,20.4 µM
same,GI50,NCI-H460 lung,3.45 µM
same,TGI,NCI-H460 lung,12.9 µM
same,GI50,HCC-2998 colon,9.03 µM
same,TGI,HCC-2998 colon,27.4 µM
same,GI50,U251 CNS,1970 nM
same,TGI,U251 CNS,5.11 µM
same,GI50,NCI-H226 lung,12.3 µM
same,TGI,NCI-H226 lung,26.9 µM
same,GI50,M14 melanoma,1710 nM
same,TGI,M14 melanoma,3.26 µM
same,GI50,SF-268 CNS,3.37 µM
same,TGI,SF-268 CNS,14.1 µM
same,GI50,A549 NSCLC,3.38 µM
same,TGI,A549 NSCLC,13.3 µM
same,GI50,T-47D breast,2540 nM
same,TGI,T-47D breast,7.08 µM
same,GI50,SK-OV-3 ovarian,9.57 µM
same,TGI,SK-OV-3 ovarian,23.4 µM
same,GI50,SK-MEL-28 melanoma,1720 nM
same,TGI,SK-MEL-28 melanoma,3.24 µM
same,GI50,ACHN renal,10.4 µM
same,TGI,ACHN renal,23 µM
same,GI50,MDA-MB-231 breast,2610 nM
same,TGI,MDA-MB-231 breast,9.44 µM
same,GI50,SR leukemia,3.25 µM
same,TGI,SR leukemia,10.2 µM
same,GI50,NCI-H23 lung,10.8 µM
same,TGI,NCI-H23 lung,25.5 µM
same,GI50,IGROV1 ovarian,12.5 µM
same,TGI,IGROV1 ovarian,26.9 µM
same,GI50,CCRF-CEM leukemia,2440 nM
same,TGI,CCRF-CEM leukemia,6.88 µM
same,GI50,RPMI-8226 leukemia,2420 nM
same,TGI,RPMI-8226 leukemia,7.75 µM
same,GI50,DU-145 prostate,4.75 µM
same,TGI,DU-145 prostate,17.1 µM
same,GI50,786-0 renal,6.14 µM
same,TGI,786-0 renal,17.7 µM
same,GI50,MCF7 breast,2640 nM
same,TGI,MCF7 breast,14.4 µM
same,GI50,TK-10 renal,2150 nM
same,TGI,TK-10 renal,5.54 µM
same,GI50,SW-620 colon,2150 nM
same,TGI,SW-620 colon,6.45 µM
same,GI50,HL-60(TB) leukemia,3.03 µM
same,TGI,HL-60(TB) leukemia,10.9 µM
same,GI50,MDA-MB-435,1670 nM
same,TGI,MDA-MB-435,3.34 µM
same,GI50,SN12C renal,12 µM
same,TGI,SN12C renal,25.1 µM
same,GI50,OVCAR-4 ovarian,5.36 µM
same,TGI,OVCAR-4 ovarian,15.9 µM
same,GI50,SK-MEL-5 melanoma,1680 nM
same,TGI,SK-MEL-5 melanoma,3.11 µM
same,GI50,UACC-62 melanoma,5.47 µM
same,TGI,UACC-62 melanoma,16.8 µM
same,GI50,CAKI-1 renal,5.01 µM
same,TGI,CAKI-1 renal,11.2 µM
same,GI50,OVCAR-5 ovarian,8.87 µM
same,TGI,OVCAR-5 ovarian,22.2 µM
same,GI50,COLO 205 colon,1660 nM
same,TGI,COLO 205 colon,3.1 µM
same,GI50,KM12 colon,3.07 µM
same,TGI,KM12 colon,12.6 µM
same,GI50,UO-31 renal,14.1 µM
same,TGI,UO-31 renal,28.1 µM
same,GI50,EKVX NSCLC,8.42 µM
same,TGI,EKVX NSCLC,21.1 µM
same,GI50,SNB-19 CNS,15.4 µM
same,TGI,SNB-19 CNS,30.3 µM
same,GI50,LOX IMVI melanoma,1750 nM
same,TGI,LOX IMVI melanoma,3.95 µM
same,GI50,HCT-15 colon,9.82 µM
same,TGI,HCT-15 colon,23.9 µM
same,GI50,BT-549 breast,3.85 µM
same,TGI,BT-549 breast,15.3 µM
same,GI50,MALME-3M melanoma,1800 nM
same,TGI,MALME-3M melanoma,3.42 µM
same,GI50,NCI-H522 lung,2950 nM
same,TGI,NCI-H522 lung,8.53 µM
same,GI50,UACC-257 melanoma,1670 nM
same,TGI,UACC-257 melanoma,3.25 µM
same,GI50,HOP-62 NSCLC,3.22 µM
same,TGI,HOP-62 NSCLC,10.1 µM
same,GI50,SF-295 CNS,2520 nM
same,TGI,SF-295 CNS,6.55 µM
same,GI50,MOLT-4 leukemia,3.38 µM
same,TGI,MOLT-4 leukemia,11.6 µM
same,GI50,SNB-75 CNS,2090 nM
same,TGI,SNB-75 CNS,10.8 µM
same,GI50,HCT-116 colon,3.08 µM
same,TGI,HCT-116 colon,14.1 µM
same,GI50,SF-539 CNS,1790 nM
same,TGI,SF-539 CNS,3.48 µM
same,GI50,PC-3 prostate,7.09 µM
same,TGI,PC-3 prostate,22.4 µM
same,GI50,HT29 colon,1490 nM
same,TGI,HT29 colon,3.86 µM
